Reference: ChEMBL document CHEMBL4138105, “LL-37-derived short antimicrobial peptide KR-12-a5 and its d-amino acid substituted analogs with cell selectivity, anti-biofilm activity, synergistic effect with conventional antibiotics, and anti-inflammatory activity” (Eur J Med Chem, 2017)
≈ marks a conversion by molar mass, not a printed value. Calls of active or inactive are those of the source. No cut-off for these calls is given here.

Tests used:
[1] = tested on: Escherichia coli; experiment: Antibacterial activity against Escherichia coli KCTC 1682 after 24 hrs; type: functional; details: KCTC 1682, 24 h
[2] = tested on: Pseudomonas aeruginosa; experiment: Antibacterial activity against Pseudomonas aeruginosa KCTC 1637 after 24 hrs; type: functional; details: KCTC 1637, 24 h
[3] = tested on: Bacillus subtilis; experiment: Antibacterial activity against Bacillus subtilis KCTC 3068 after 24 hrs; type: functional; details: KCTC 3068, 24 h
[4] = tested on: Staphylococcus epidermidis; experiment: Antibacterial activity against Staphylococcus epidermidis KCTC 1917 after 24 hrs; type: functional; details: KCTC 1917, 24 h
[5] = tested on: Staphylococcus aureus; experiment: Antibacterial activity against Staphylococcus aureus KCTC 1621 after 24 hrs; type: functional; details: KCTC 1621, 24 h
[6] = tested on: Erythrocyte; experiment: Hemolytic activity in human RBC after 1 hr; type: ADME, cell-based
[7] = Therapeutic index, ratio of MHC10 for human RBC to MIC for Escherichia coli KCTC 1682; type: toxicity; details: red blood cells (RBC), pooled result: one value given for 6 cell lines, strains, targets or settings, read-out: TI
[8] = tested on: NIH3T3; experiment: Cytotoxicity against mouse NIH/3T3 cells up to 128 uM after 48 hrs by MTT assay; type: cell-based; details: nih3t3, 48 h
[9] = tested on: RAW264.7; experiment: Anti-inflammatory activity in mouse RAW264.7 cells assessed as reduction in LPS-induced nitric oxide production at 10 to 20 uM after 24 hrs by Griess assay; type: functional, cell-based
[10] = tested on: RAW264.7; experiment: Anti-inflammatory activity in mouse RAW264.7 cells assessed as reduction in LPS-induced IL-6 production at 10 to 20 uM preincubated for 1 hr followed by LPS stimulation measured after 6 hrs by ELISA; type: functional, cell-based
[11] = tested on: RAW264.7; experiment: Anti-inflammatory activity in mouse RAW264.7 cells assessed as reduction in LPS-induced TNF-alpha mRNA expression at 10 uM after 3 hrs by RT-PCR analysis; type: functional, cell-based
[12] = tested on: RAW264.7; experiment: Anti-inflammatory activity in mouse RAW264.7 cells assessed as reduction in LPS-induced IL-6 mRNA expression at 10 uM after 3 hrs by RT-PCR analysis; type: functional, cell-based
[13] = tested on: RAW264.7; experiment: Anti-inflammatory activity in mouse RAW264.7 cells assessed as reduction in LPS-induced MCP-1 mRNA expression at 10 uM after 3 hrs by RT-PCR analysis; type: functional, cell-based
[14] = tested on: Staphylococcus aureus; experiment: Antibacterial activity against methicillin resistant Staphylococcus aureus CCARM 3090 after 24 hrs; type: functional; details: CCARM 3090, 24 h
[15] = tested on: Pseudomonas aeruginosa; experiment: Antibacterial activity against multidrug-resistant Pseudomonas aeruginosa CCARM 2095 after 24 hrs; type: functional; details: CCARM 2095, 24 h
[16] = tested on: Pseudomonas aeruginosa; experiment: Antibacterial activity against multidrug-resistant Pseudomonas aeruginosa CCARM 2109 after 24 hrs; type: functional; details: CCARM 2109, 24 h
[17] = tested on: Enterococcus faecium; experiment: Antibacterial activity against Vancomycin-resistant Enterococcus faecium ATCC 51559 after 24 hrs; type: functional; details: ATCC 51559, 24 h
[18] = tested on: Escherichia coli; experiment: Antibacterial activity against Escherichia coli KCTC 1682 in presence of 150 mM NaCl after 24 hrs; type: functional; details: KCTC 1682, 24 h
[19] = tested on: Escherichia coli; experiment: Antibacterial activity against Escherichia coli KCTC 1682 in presence of 4.5 mM KCl after 24 hrs; type: functional; details: KCTC 1682, 24 h
[20] = tested on: Escherichia coli; experiment: Antibacterial activity against Escherichia coli KCTC 1682 in presence of 6 uM NH4Cl after 24 hrs; type: functional; details: KCTC 1682, 24 h
[21] = tested on: Escherichia coli; experiment: Antibacterial activity against Escherichia coli KCTC 1682 in presence of 1 mM MgCl2 after 24 hrs; type: functional; details: KCTC 1682, 24 h
[22] = tested on: Escherichia coli; experiment: Antibacterial activity against Escherichia coli KCTC 1682 in presence of 2.5 mM CaCl2 after 24 hrs; type: functional; details: KCTC 1682, 24 h
[23] = tested on: Escherichia coli; experiment: Antibacterial activity against Escherichia coli KCTC 1682 in presence of 20% human serum after 24 hrs; type: functional; details: KCTC 1682, 24 h
[24] = tested on: Staphylococcus aureus; experiment: Antibacterial activity against Staphylococcus aureus KCTC 1621 in presence of 150 mM NaCl after 24 hrs; type: functional; details: KCTC 1621, 24 h
[25] = tested on: Staphylococcus aureus; experiment: Antibacterial activity against Staphylococcus aureus KCTC 1621 in presence of 6 uM NH4Cl after 24 hrs; type: functional; details: KCTC 1621, 24 h
[26] = tested on: Staphylococcus aureus; experiment: Antibacterial activity against Staphylococcus aureus KCTC 1621 in presence of 20% human serum after 24 hrs; type: functional; details: KCTC 1621, 24 h
[27] = tested on: Staphylococcus aureus; experiment: Ratio of MIC for Staphylococcus aureus KCTC 1621 in presence of 20% human serum to MIC for Escherichia coli KCTC 1682 in presence of 20% human serum; type: functional
[28] = tested on: Pseudomonas aeruginosa; experiment: Antibiofilm activity against multidrug-resistant Pseudomonas aeruginosa CCARM 2095 after 24 hrs by crystal violet staining based assay; type: functional
[29] = tested on: Pseudomonas aeruginosa; experiment: Synergistic antibacterial activity against multidrug-resistant Pseudomonas aeruginosa CCARM 2095 after 72 hrs in presence of chloramphenicol by chequerboard assay; type: functional
[30] = tested on: Pseudomonas aeruginosa; experiment: Synergistic antibacterial activity against multidrug-resistant Pseudomonas aeruginosa CCARM 2095 after 72 hrs in presence of ciprofloxacin by chequerboard assay; type: functional
[31] = tested on: Pseudomonas aeruginosa; experiment: Synergistic antibacterial activity against multidrug-resistant Pseudomonas aeruginosa CCARM 2095 after 72 hrs in presence of oxacillin by chequerboard assay; type: functional
[32] = tested on: Staphylococcus aureus; experiment: Antibacterial activity against Staphylococcus aureus KCTC 1621 assessed as cell membrane disruption at 2 times MIC within 4 mins by Sytox Green dye based fluorescence spectrophotometer assay; type: functional, organism-based
[33] = tested on: Staphylococcus aureus; experiment: Antibacterial activity against Staphylococcus aureus KCTC 1621 assessed as cytoplasmic membrane depolarization at 2 times MIC by disC3-5 dye based fluorescence assay; type: functional, organism-based
[34] = tested on: Staphylococcus aureus; experiment: Potency index, ratio of LL-37 MIC to compound MIC for methicillin resistant Staphylococcus aureus CCARM 3089; type: functional
[35] = tested on: Staphylococcus aureus; experiment: Potency index, ratio of LL-37 MIC to compound MIC for methicillin resistant Staphylococcus aureus CCARM 3090; type: functional
[36] = tested on: Pseudomonas aeruginosa; experiment: Potency index, ratio of LL-37 MIC to compound MIC for multidrug-resistant Pseudomonas aeruginosa CCARM 2095; type: functional
[37] = tested on: Pseudomonas aeruginosa; experiment: Potency index, ratio of LL-37 MIC to compound MIC for multidrug-resistant Pseudomonas aeruginosa CCARM 2109; type: functional
[38] = tested on: Enterococcus faecium; experiment: Potency index, ratio of LL-37 MIC to compound MIC for Vancomycin-resistant Enterococcus faecium ATCC 51559; type: functional
[39] = tested on: Staphylococcus aureus; experiment: Potency index, ratio of melittin MIC to compound MIC for methicillin resistant Staphylococcus aureus CCARM 3090; type: functional
[40] = tested on: Pseudomonas aeruginosa; experiment: Potency index, ratio of melittin MIC to compound MIC for multidrug-resistant Pseudomonas aeruginosa CCARM 2109; type: functional
[41] = tested on: Enterococcus faecium; experiment: Potency index, ratio of melittin MIC to compound MIC for Vancomycin-resistant Enterococcus faecium ATCC 51559; type: functional
[42] = tested on: Lipid bilayer; experiment: Binding affinity to EYPE/EYPG small unilamellar vesicles assessed as intrinsic tryptophan acrylamide quenching constant by fluorescence assay (reference value: 5.95 to 7.56 /M)
[43] = Binding affinity to EYPC/cholesterol small unilamellar vesicles assessed as intrinsic tryptophan acrylamide quenching constant by fluorescence assay (reference value: 5.95 to 7.56 /M)
[44] = tested on: Pseudomonas aeruginosa; experiment: Potency index, ratio of LL-37 MBIC90 to compound MBIC90 for antibiofilm activity against multidrug-resistant Pseudomonas aeruginosa CCARM 2095; type: functional

SMILES: CC[C@H](C)[C@H](NC(=O)[C@H](CCCNC(=N)N)NC(=O)[C@@H](N)CCCCN)C(=O)N[C@H](C(=O)N[C@@H](CCCCN)C(=O)N[C@H](CC(C)C)C(=O)N[C@H](C(=O)N[C@@H](CC(C)C)C(=O)N[C@@H](CCCCN)C(=O)N[C@@H](Cc1c[nH]c2ccccc12)C(=O)N[C@@H](CC(C)C)C(=O)N[C@@H](CCCNC(=N)N)C(N)=O)[C@@H](C)CC)C(C)C
- MIC [1]: 4 µM (≈ 6.26 µg/mL)
- MIC [2]: 4 µM (≈ 6.26 µg/mL)
- MIC [3]: 4 µM (≈ 6.26 µg/mL)
- MIC [4]: 4 µM (≈ 6.26 µg/mL)
- MIC [5]: 2 µM (≈ 3.13 µg/mL)
- MHC10 [6]: 202 µM
- selectivity ratio [7]: 61.2
- Activity [8]: Non-Toxic
- Activity [9]: Active
- Activity [10]: Active
- Activity [11]: Active
- Activity [12]: Active
- Activity [13]: Active
- MIC [14]: 4 µM (≈ 6.26 µg/mL)
- MIC [15]: 8 µM (≈ 12.5 µg/mL)
- MIC [16]: 4 µM (≈ 6.26 µg/mL)
- MIC [17]: 4 µM (≈ 6.26 µg/mL)
- MIC [18]: 4 µM
- MIC [19]: 4 µM
- MIC [20]: 4 µM
- MIC [21]: 4 µM
- MIC [22]: 16 µM
- MIC [23]: 8 µM
- MIC [24]: 8 µM
- MIC [25]: 2 µM
- MIC [26]: 16 µM
- Ratio [27]: 2 - 8
- MBIC90 [28]: 16 µM
- fractional inhibitory concentration index (FICI) [29]: 0.375
- fractional inhibitory concentration index (FICI) [30]: 0.3125
- fractional inhibitory concentration index (FICI) [31]: 0.5
- Activity [32]: Active
- Activity [33]: Active
- Ratio [34]: 2 - 4
- Ratio [35]: 2 - 4
- Ratio [36]: 2 - 4
- Ratio [37]: 2 - 4
- Ratio [38]: 2 - 4
- Ratio [39]: 2 - 4
- Ratio [40]: 2 - 4
- Ratio [41]: 2 - 4
- KSV [42]: 0.97 M⁻¹
- KSV [43]: 2.9 M⁻¹
- fold change (FC) [44]: 4 - 8

SMILES: CC[C@H](C)[C@H](NC(=O)[C@H](CC(C)C)NC(=O)[C@@H](CCCCN)NC(=O)[C@@H](NC(=O)[C@@H](NC(=O)[C@H](CCCNC(=N)N)NC(=O)[C@@H](N)CCCCN)[C@@H](C)CC)C(C)C)C(=O)N[C@@H](CC(C)C)C(=O)N[C@@H](CCCCN)C(=O)N[C@@H](Cc1c[nH]c2ccccc12)C(=O)N[C@@H](CC(C)C)C(=O)N[C@@H](CCCNC(=N)N)C(N)=O
- MIC [1]: 4 µM (≈ 6.26 µg/mL)
- MIC [2]: 8 µM (≈ 12.5 µg/mL)
- MIC [3]: 8 µM (≈ 12.5 µg/mL)
- MIC [4]: 4 µM (≈ 6.26 µg/mL)
- MIC [5]: 2 µM (≈ 3.13 µg/mL)
- MHC10 [6]: 79 µM
- selectivity ratio [7]: 16.8
- Activity [8]: Non-Toxic
- Activity [9]: Active
- Activity [10]: Active
- Activity [11]: Active
- Activity [12]: Active
- Activity [13]: Active
- MIC [14]: 4 µM (≈ 6.26 µg/mL)
- MIC [15]: 8 µM (≈ 12.5 µg/mL)
- MIC [16]: 4 µM (≈ 6.26 µg/mL)
- MIC [17]: 4 µM (≈ 6.26 µg/mL)
- MIC [18]: 4 µM
- MIC [19]: 4 µM
- MIC [20]: 4 µM
- MIC [21]: 8 µM
- MIC [22]: 8 µM
- MIC [23]: 4 µM
- MIC [24]: 2 µM
- MIC [25]: 2 µM
- MIC [26]: 16 µM
- Ratio [27]: 2 - 8
- MBIC90 [28]: 8 µM
- fractional inhibitory concentration index (FICI) [29]: 0.375
- fractional inhibitory concentration index (FICI) [30]: 0.5
- fractional inhibitory concentration index (FICI) [31]: 0.375
- Activity [32]: Active
- Activity [33]: Active
- Ratio [34]: 2 - 4
- Ratio [35]: 2 - 4
- Ratio [36]: 2 - 4
- Ratio [37]: 2 - 4
- Ratio [38]: 2 - 4
- Ratio [39]: 2 - 4
- Ratio [40]: 2 - 4
- Ratio [41]: 2 - 4
- KSV [42]: 1.02 M⁻¹
- KSV [43]: 2.21 M⁻¹
- fold change (FC) [44]: 4 - 8
